Assay results from ChEMBL document CHEMBL4765282, “Design, synthesis and biological evaluation of 1H-pyrazolo [3,4-d]pyrimidine derivatives as PAK1 inhibitors that trigger apoptosis, ER stress and anti-migration effect in MDA-MB-231 cells” (Eur J Med Chem, 2020).
The source made the active and inactive calls. No cut-off for these calls is given here.

What was measured:
[1] = molecular target: T1, Serine/threonine-protein kinase PAK 1 (Homo sapiens, UniProt Q13153); test: Inhibition of PAK1 phosphorylation at Ser199 residues in human MDA-MB-231 cells at 10 to 40 uM measured after 24 hrs by Western blot analysis; type: cell-based; details: dose 10-40 µM
[2] = molecular target: T1, Serine/threonine-protein kinase PAK 1; test: Inhibition of PAK1 in human MDA-MB-231 cells assessed as reduction in ERK expression at 10 to 40 uM measured after 24 hrs by Western blot analysis; type: cell-based; details: dose 10-40 µM
[3] = molecular target: T1, Serine/threonine-protein kinase PAK 1; test: Inhibition of PAK1 in human MDA-MB-231 cells assessed as reduction in c-Raf phosphorylation at Ser259 residues at 10 to 40 uM measured after 24 hrs by Western blot analysis; type: cell-based; details: dose 10-40 µM
[4] = molecular target: T1, Serine/threonine-protein kinase PAK 1; test: Inhibition of PAK1 in human MDA-MB-231 cells assessed as reduction in MEK1/2 phosphorylation at ser217/221 residues at 10 to 40 uM measured after 24 hrs by Western blot analysis; type: cell-based; details: dose 10-40 µM
[5] = molecular target: T1, Serine/threonine-protein kinase PAK 1; test: Inhibition of PAK1 in human MDA-MB-231 cells assessed as reduction in ERK1/2 phosphorylation at Thr202/Tyr204 residues at 10 to 40 uM measured after 24 hrs by Western blot analysis; type: cell-based; details: dose 10-40 µM
MDA-MB-231 [6] = test: Induction of apoptosis in human MDA-MB-231 cells assessed as increase in DNA fragmentation at 10 to 40 uM measured after 24 hrs by Hoechst 33258 staining based assay; type: functional, cell-based; details: dose 10-40 µM
MDA-MB-231 [7] = test: Induction of apoptosis in human MDA-MB-231 cells assessed as increase in late apoptosis measured after 24 hrs by Annexin V-FITC/propidium iodide staining based flow cytometry; type: functional, cell-based
MDA-MB-231 [8] = test: Induction of apoptosis in human MDA-MB-231 cells assessed as late apoptotic cells at 20 uM measured after 24 hrs by Annexin V-FITC/propidium iodide staining based flow cytometry (reference value: 0.57%); type: functional
MDA-MB-231 [9] = test: Induction of apoptosis in human MDA-MB-231 cells assessed as viable cells at 40 uM measured after 24 hrs by Annexin V-FITC/propidium iodide staining based flow cytometry (reference value: 98.46%); type: functional; details: read-out: Activity
MDA-MB-231 [10] = test: Induction of apoptosis in human MDA-MB-231 cells assessed as necrotic cells at 40 uM measured after 24 hrs by Annexin V-FITC/propidium iodide staining based flow cytometry (reference value: 0.16%); type: functional
MDA-MB-231 [11] = test: Induction of apoptosis in human MDA-MB-231 cells assessed as upregulation of Bax expression at 10 to 40 uM measured after 24 hrs by Western blot analysis; type: functional, cell-based; details: dose 10-40 µM
MDA-MB-231 [12] = test: Induction of apoptosis in human MDA-MB-231 cells assessed as increase in caspase-8 cleavage at 10 to 40 uM measured after 24 hrs by Western blot analysis; type: functional, cell-based; details: dose 10-40 µM
MDA-MB-231 [13] = test: Induction of apoptosis in human MDA-MB-231 cells assessed as increase in PARP cleavage at 10 to 40 uM measured after 24 hrs by Western blot analysis; type: functional, cell-based; details: dose 10-40 µM
[14] = Upregulation of ATF4 gene expression in human MDA-MB-231 cells by Trizol reagent based RNA sequencing analysis relative to control; type: functional
[15] = Effect on DDIT4 gene expression in human MDA-MB-231 cells by Trizol reagent based RNA sequencing analysis relative to control; type: functional
[16] = Effect on PPP1R15A gene expression in human MDA-MB-231 cells by Trizol reagent based RNA sequencing analysis relative to control; type: functional
[17] = Effect on SHMT2 gene expression in human MDA-MB-231 cells by Trizol reagent based RNA sequencing analysis relative to control; type: functional
[18] = Effect on G0S2 gene expression in human MDA-MB-231 cells by Trizol reagent based RNA sequencing analysis relative to control; type: functional
[19] = Effect on GDF15 gene expression in human MDA-MB-231 cells by Trizol reagent based RNA sequencing analysis relative to control; type: functional
[20] = Effect on TRIB3 gene expression in human MDA-MB-231 cells by Trizol reagent based RNA sequencing analysis relative to control; type: functional
[21] = Effect on MIA2 gene expression in human MDA-MB-231 cells by Trizol reagent based RNA sequencing analysis relative to control; type: functional
[22] = Effect on CXCL2 gene expression in human MDA-MB-231 cells by Trizol reagent based RNA sequencing analysis relative to control; type: functional
[23] = Effect on GPT2 gene expression in human MDA-MB-231 cells by Trizol reagent based RNA sequencing analysis relative to control; type: functional
[24] = Effect on CSTA gene expression in human MDA-MB-231 cells by Trizol reagent based RNA sequencing analysis relative to control; type: functional
[25] = Effect on CASC10 gene expression in human MDA-MB-231 cells by Trizol reagent based RNA sequencing analysis relative to control; type: functional
[26] = Effect on KLF15 gene expression in human MDA-MB-231 cells by Trizol reagent based RNA sequencing analysis relative to control; type: functional
[27] = Effect on GRID1 gene expression in human MDA-MB-231 cells by Trizol reagent based RNA sequencing analysis relative to control; type: functional
MDA-MB-231 [28] = test: Upregulation of ATF4 expression in human MDA-MB-231 cells at 10 to 40 uM measured after 24 hrs by Western blot analysis; type: functional, cell-based; details: dose 10-40 µM
MDA-MB-231 [29] = test: Upregulation of XBP-1s expression in human MDA-MB-231 cells at 10 to 40 uM measured after 24 hrs by Western blot analysis; type: functional, cell-based; details: dose 10-40 µM
MDA-MB-231 [30] = test: Upregulation of PERK expression in human MDA-MB-231 cells transfected with si-PAK1 at 10 uM measured after 24 hrs by Western blot analysis; type: functional, cell-based
MDA-MB-231 [31] = test: Inhibition of AKT phosphorylation at Ser473 residue in human MDA-MB-231 cells at 20 uM measured after 24 hrs by immunofluorescence analysis; type: cell-based
MDA-MB-231 [32] = test: Inhibition of PI3K/AKT/mTOR signaling in human MDA-MB-231 cells assessed as reduction in AKT phosphorylation at 10 to 40 uM after 24 hrs by Western blot analysis; type: cell-based; details: dose 10-40 µM
MDA-MB-231 [33] = test: Inhibition of PI3K/AKT/mTOR signaling in human MDA-MB-231 cells assessed as reduction in mTOR phosphorylation at 10 to 40 uM after 24 hrs by Western blot analysis; type: cell-based; details: dose 10-40 µM
[34] = molecular target: T2, Mitogen-activated protein kinase 8/9 (Homo sapiens) (UniProt P45983+P45984); test: Inhibition of JNK1/2 in human MDA-MB-231 cells assessed as reduction in SAPK/JNK phosphorylation at […] residues at 10 to 40 uM after 24 hrs by Western blot analysis; type: cell-based; details: dose 10-40 µM
[35] = molecular target: T2, Mitogen-activated protein kinase 8/9 (Homo sapiens); test: Inhibition of JNK1/2 in human MDA-MB-231 cells assessed as reduction in c-JUN phosphorylation at Ser63 residues at 10 to 40 uM after 24 hrs by Western blot analysis; type: cell-based; details: dose 10-40 µM
MDA-MB-231 [36] = test: Inhibition of human MDA-MB-231 cell migration measured after 24 hrs by phase contrast microscopy based transwell assay; type: functional
MDA-MB-231 [37] = test: Up regulation of E-cadherin expression in human MDA-MB-231 cells at 10 to 40 uM measured after 24 hrs by Western blot analysis; type: functional, cell-based; details: dose 10-40 µM

T1 sequence (Q13153 whole entry): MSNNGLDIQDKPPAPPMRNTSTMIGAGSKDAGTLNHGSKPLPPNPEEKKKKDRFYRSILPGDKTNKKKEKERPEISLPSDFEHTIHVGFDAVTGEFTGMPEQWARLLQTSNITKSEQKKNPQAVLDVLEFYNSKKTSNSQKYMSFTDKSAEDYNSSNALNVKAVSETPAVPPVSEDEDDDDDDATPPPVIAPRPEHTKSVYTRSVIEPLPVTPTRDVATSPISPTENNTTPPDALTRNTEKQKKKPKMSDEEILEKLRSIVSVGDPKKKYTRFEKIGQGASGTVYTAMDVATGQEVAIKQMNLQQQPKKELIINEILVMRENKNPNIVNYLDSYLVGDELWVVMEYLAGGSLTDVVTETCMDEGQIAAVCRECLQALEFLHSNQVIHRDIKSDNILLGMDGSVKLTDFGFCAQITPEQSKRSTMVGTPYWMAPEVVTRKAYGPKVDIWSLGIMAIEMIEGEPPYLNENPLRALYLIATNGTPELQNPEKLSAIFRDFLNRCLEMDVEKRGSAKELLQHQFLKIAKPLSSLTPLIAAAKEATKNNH
T2 sequence (P45983 whole entry, looked up): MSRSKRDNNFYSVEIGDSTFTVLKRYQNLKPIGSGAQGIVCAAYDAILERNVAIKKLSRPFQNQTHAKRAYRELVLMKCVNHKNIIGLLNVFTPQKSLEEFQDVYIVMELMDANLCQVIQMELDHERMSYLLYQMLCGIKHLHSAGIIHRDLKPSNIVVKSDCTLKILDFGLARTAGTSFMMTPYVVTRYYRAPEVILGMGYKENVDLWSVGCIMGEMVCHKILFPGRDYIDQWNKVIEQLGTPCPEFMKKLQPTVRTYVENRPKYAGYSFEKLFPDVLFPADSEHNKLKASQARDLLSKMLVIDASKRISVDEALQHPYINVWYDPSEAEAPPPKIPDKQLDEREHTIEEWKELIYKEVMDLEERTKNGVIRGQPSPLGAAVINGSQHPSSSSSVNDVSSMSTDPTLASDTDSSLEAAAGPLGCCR
T2 sequence (P45984 whole entry, looked up): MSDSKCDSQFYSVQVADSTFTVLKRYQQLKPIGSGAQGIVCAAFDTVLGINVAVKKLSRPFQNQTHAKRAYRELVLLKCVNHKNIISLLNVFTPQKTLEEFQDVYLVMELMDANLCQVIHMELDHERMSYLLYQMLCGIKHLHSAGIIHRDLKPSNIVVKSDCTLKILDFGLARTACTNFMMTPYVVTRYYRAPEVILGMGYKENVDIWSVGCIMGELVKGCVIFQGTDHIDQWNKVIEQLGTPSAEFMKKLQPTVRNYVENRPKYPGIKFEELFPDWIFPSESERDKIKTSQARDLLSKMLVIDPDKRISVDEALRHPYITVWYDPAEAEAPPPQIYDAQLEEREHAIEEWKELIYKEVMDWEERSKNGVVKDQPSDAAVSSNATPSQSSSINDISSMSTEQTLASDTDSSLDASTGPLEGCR

- inhibition [1]: Active
- inhibition [2]: Active
- inhibition [3]: Active
- inhibition [4]: Active
- inhibition [5]: Active
- inhibition [34]: Active
- inhibition [35]: Active
Structure (SMILES): O=C(Nc1cc(C(F)(F)F)cc(C(F)(F)F)c1)NC1CCN(c2ncnc3[nH]ncc23)CC1
- Activity (MDA-MB-231 [6]): Active
- Activity (MDA-MB-231 [7]): Dose-dependent effect
- Activity (MDA-MB-231 [8]): 6.91%
- viability at 40 µM (MDA-MB-231 [9]): 72.2%
- Activity (MDA-MB-231 [10]): 0.91%
- Activity (MDA-MB-231 [11]): Active
- Activity (MDA-MB-231 [12]): Active
- Activity (MDA-MB-231 [13]): Active
- fold change (FC) [14]: >2
- fold change (FC) [15]: >2
- fold change (FC) [16]: >2
- fold change (FC) [17]: >2
- fold change (FC) [18]: >2
- fold change (FC) [19]: >2
- fold change (FC) [20]: >2
- fold change (FC) [21]: >2
- fold change (FC) [22]: >2
- fold change (FC) [23]: >2
- fold change (FC) [24]: >2
- fold change (FC) [25]: >2
- fold change (FC) [26]: >2
- fold change (FC) [27]: >2
- Activity (MDA-MB-231 [28]): Active
- Activity (MDA-MB-231 [29]): Active
- Activity (MDA-MB-231 [30]): inactive
- inhibition (MDA-MB-231 [31]): Active
- inhibition (MDA-MB-231 [32]): Active
- inhibition (MDA-MB-231 [33]): Active
- inhibition (MDA-MB-231 [36]): Active
- Activity (MDA-MB-231 [37]): Active
